Source: ChEMBL document CHEMBL3352774 (J Nat Prod, 2014)
One block for each molecule: values may come before it.

What was measured:
[1] = biological target: T1, Xanthine dehydrogenase/oxidase (Homo sapiens, UniProt P47989); test: Inhibition of human xanthine oxidase
[2] = biological target: T1, Xanthine dehydrogenase/oxidase; test: Inhibition of oxidized form of human xanthine oxidase
[3] = biological target: Xanthine dehydrogenase/oxidase (Bos taurus, UniProt P80457); test: Inhibition of bovine milk xanthine oxidoreductase by spectrophotometry
Chain of Xanthine dehydrogenase/oxidase (Bos taurus, UniProt P80457) (P80457 whole entry): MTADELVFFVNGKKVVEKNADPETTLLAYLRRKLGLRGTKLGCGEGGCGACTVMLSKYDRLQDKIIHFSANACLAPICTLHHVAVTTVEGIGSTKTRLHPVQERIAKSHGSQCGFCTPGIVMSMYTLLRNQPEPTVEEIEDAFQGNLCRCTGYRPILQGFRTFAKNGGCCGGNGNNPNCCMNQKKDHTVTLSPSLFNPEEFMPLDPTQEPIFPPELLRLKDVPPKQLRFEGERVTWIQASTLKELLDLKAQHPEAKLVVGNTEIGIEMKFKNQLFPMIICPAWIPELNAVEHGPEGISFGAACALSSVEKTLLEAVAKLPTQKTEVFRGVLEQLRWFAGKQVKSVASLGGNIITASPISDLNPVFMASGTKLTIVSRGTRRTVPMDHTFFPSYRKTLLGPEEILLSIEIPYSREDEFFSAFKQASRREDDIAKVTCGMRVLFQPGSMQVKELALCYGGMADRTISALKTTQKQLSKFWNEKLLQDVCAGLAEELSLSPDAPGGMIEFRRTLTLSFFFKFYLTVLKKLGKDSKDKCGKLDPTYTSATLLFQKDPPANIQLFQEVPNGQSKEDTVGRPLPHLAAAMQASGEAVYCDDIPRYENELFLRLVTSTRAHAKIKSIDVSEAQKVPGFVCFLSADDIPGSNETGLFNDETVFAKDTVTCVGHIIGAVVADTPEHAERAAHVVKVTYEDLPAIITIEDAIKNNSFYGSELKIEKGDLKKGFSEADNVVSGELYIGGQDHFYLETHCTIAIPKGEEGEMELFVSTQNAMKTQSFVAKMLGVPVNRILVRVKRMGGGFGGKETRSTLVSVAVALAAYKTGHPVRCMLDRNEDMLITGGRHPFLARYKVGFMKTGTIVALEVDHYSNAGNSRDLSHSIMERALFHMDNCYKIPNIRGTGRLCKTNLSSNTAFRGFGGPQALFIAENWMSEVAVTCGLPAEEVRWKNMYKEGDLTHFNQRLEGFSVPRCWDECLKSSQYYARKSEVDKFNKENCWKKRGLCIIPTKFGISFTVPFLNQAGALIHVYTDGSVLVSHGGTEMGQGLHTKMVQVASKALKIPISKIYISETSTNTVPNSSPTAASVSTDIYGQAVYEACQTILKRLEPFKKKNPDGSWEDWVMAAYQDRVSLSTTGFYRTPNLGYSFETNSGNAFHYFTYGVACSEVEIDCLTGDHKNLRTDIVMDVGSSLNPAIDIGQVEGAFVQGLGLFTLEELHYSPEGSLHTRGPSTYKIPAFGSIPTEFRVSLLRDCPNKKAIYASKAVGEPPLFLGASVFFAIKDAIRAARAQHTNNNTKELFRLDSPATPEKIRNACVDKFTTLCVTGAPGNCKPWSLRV

Xanthine dehydrogenase = biological target: T2, Xanthine dehydrogenase (Rhodobacter capsulatus, UniProt O54050); test: Inhibition of Rhodobacter capsulatus xanthine dehydrogenase
T2 sequence (O54050 whole entry): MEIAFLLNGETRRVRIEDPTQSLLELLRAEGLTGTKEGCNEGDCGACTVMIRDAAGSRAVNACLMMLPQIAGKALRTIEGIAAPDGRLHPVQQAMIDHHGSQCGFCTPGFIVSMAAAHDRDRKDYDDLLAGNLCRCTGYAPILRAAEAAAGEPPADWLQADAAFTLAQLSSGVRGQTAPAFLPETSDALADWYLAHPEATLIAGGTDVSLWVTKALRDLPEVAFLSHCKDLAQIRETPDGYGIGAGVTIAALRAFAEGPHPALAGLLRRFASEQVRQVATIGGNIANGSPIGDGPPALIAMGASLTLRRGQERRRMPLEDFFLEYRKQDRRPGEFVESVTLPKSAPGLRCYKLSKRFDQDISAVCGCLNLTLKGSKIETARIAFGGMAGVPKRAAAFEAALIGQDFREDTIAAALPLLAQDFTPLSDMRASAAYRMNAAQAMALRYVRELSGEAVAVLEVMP

T1 sequence (P47989 whole entry): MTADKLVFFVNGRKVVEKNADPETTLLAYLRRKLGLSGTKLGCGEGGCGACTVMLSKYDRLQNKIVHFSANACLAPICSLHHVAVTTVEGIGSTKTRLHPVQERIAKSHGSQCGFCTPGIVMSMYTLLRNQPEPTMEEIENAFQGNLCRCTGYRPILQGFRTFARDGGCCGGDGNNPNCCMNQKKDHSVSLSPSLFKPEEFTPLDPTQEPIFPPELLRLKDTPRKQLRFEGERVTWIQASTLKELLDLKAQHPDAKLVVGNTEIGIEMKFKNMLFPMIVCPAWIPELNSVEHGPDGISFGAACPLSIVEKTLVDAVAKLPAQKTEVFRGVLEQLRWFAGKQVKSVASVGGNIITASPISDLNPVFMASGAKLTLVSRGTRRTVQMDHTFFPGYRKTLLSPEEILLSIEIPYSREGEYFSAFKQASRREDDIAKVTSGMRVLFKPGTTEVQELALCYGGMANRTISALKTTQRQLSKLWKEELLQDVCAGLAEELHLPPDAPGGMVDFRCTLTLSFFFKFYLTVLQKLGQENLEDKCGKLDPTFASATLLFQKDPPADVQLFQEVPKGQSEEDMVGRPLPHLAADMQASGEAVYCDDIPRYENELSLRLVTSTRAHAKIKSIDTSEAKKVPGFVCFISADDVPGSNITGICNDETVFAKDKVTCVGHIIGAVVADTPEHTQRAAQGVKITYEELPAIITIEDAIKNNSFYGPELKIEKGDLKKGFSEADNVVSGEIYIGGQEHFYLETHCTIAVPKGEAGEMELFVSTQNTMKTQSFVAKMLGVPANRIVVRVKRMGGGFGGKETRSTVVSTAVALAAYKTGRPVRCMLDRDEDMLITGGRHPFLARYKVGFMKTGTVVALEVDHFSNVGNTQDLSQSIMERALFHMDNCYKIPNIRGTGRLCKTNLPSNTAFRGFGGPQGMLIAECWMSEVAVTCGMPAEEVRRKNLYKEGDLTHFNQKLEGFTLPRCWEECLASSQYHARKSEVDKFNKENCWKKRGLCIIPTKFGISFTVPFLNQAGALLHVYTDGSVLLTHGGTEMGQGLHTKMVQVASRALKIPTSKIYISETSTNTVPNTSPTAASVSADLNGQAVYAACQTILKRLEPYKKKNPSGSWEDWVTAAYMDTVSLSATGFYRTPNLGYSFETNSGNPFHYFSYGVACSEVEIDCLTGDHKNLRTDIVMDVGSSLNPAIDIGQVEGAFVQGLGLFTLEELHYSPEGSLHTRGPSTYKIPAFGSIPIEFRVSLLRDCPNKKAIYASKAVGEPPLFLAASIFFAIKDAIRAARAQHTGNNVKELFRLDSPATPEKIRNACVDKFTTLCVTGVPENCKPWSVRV

- Ki [1]: 35 nM
- Ki [2]: 1000 nM
SMILES: O=c1[nH]c(=O)c2c[nH]nc2[nH]1 [OXYPURINOL]

- Ki [3]: 1.78 nM
- Ki (Xanthine dehydrogenase): 104 nM
SMILES: Nc1nc2ncc(C=O)nc2c(=O)[nH]1

SMILES: O=c1c(O)c(-c2ccc(O)c(O)c2)oc2cc(O)cc(O)c12 [QUERCETIN]
- inhibition (INH) ([3]; cattle): Active
